Experimental data: patent US12221428B2, “Use of deuterated empathogens as therapeutic agents” (priority 2021, dated 2025)
pEC50, pIC50: −log10 of the molar value.

Experiments:
CYP2D6 = CYP2D6 (Homo sapiens, UniProt P10635); settings: cited from earlier work
NET = molecular target: T1, NET (Homo sapiens, UniProt P23975); assay: Neurotransmitter Transporter Uptake Assay, NET blocker mode; assay type: cell-based
T1 construct: expressed in transfected cells
Description: Methods—Monoamine Transporter Assay: Neurotransmitter uptake via transporters was measured using the Neurotransmitter Transporter Uptake Assay Kit from Molecular Devices. Dopamine, norepinephrine or serotonin transporter activity in cells was detected using a homogeneous fluorescence based assay. Increased intracellular fluorescence intensity following uptake of biogenic amine neurotransmitters via transporters is measured and can be run in a kinetic or endpoint mode.
To determine percentage inhibition of neurotransmitter uptake via transporter, cell lines were expanded from freezer stocks, seeded into a multi-well microplate, and incubated at 37° C. Then, the compound was administered and the mix was incubated again. Following compound incubation, dye was added to the wells and the plate was re-incubated. Microplates were then transferred to a PerkinElmer Envision™ instrument for fluorescence signal detection.
Compound activity was analyzed using CBIS data analysis (ChemInnovation, CA). For blocker mode assays, percentage inhibition was calculated using the following formula: % Inhibition=100%×(1−(mean RLU of test sample−mean RLU of vehicle control)/(mean RLU of positive control−mean RLU of vehicle control)).

DAT = molecular target: T2, DAT (Homo sapiens, UniProt Q01959); assay: Neurotransmitter Transporter Uptake Assay, DAT blocker mode; assay type: cell-based
T2 construct: expressed in transfected cells
T2 sequence (Q01959 whole entry, species assumed): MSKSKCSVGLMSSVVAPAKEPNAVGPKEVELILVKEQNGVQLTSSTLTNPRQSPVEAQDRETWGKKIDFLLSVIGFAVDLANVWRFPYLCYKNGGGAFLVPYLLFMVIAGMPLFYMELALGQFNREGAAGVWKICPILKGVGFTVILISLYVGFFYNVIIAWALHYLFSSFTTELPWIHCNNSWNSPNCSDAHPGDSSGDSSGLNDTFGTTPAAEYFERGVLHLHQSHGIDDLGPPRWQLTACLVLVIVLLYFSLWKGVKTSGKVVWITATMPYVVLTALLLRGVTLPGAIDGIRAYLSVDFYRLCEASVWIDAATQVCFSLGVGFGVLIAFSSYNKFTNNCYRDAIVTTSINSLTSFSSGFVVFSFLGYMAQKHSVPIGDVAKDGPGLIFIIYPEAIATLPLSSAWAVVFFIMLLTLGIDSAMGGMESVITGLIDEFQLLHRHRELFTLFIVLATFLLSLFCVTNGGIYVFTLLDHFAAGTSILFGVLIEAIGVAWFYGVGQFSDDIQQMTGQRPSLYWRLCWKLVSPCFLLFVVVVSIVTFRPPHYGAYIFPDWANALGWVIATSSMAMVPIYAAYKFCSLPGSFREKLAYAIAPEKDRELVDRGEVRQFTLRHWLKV

HTR1B = molecular target: T3, HTR1B (Homo sapiens, UniProt P28222); assay: Hit Hunter cAMP assay, HTR1B agonist mode; assay type: cell-based
T3 construct: expressed in transfected cells
T3 sequence (P28222 whole entry, species assumed): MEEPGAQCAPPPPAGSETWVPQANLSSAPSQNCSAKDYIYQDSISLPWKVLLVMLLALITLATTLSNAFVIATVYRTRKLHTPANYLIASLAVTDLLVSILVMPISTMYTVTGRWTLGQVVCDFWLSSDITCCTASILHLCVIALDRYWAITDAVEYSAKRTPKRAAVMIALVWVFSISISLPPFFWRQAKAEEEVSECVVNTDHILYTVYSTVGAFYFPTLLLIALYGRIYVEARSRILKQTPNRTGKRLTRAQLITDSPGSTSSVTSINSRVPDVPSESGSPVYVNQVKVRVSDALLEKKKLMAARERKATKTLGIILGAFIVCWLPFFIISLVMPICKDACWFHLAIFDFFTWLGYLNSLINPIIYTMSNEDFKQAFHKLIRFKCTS
Description: Methods—cAMP: Activation of HTR1B and GRM2, among other targets, was determined using the Hit Hunter® cAMP assay. The assay monitors the activation of a GPCR via Gi and Gs secondary messenger signaling, using β-Gal as a functional reporter.
To determine agonistic activity at Gi/Gs, cells were expanded from freezer stocks, seeded into multi-well plates, and incubated at 37° C. prior to addition of a test compound. To determine Gi/Gs agonism, media was aspirated from cells and replaced with 15 μL 2:1 HBSS/10 mM HEPES:cAMP XS+Ab reagent. Concentrated (4×) test compound in assay buffer was added to cells and incubated at 37° C. or room temperature for 30 or 60 minutes. For Gi agonist activation, cells were incubated with EC80 forskolin in addition to a test compound. Vehicle concentration was 1%.
For Gs agonist mode assays, percentage activity was calculated using the following formula: % Activity=100%×(mean RLU of test sample−mean RLU of vehicle control)/(mean RLU of MAX control−mean RLU of vehicle control).
For Gi agonist mode assays, percentage activity was calculated using the following formula: % Activity=100%×(1−(mean RLU of test sample−mean RLU of MAX control)/(mean RLU of vehicle control−mean RLU of MAX control)).

[1] = molecular target: T4, serotonin receptor 2B (HTR2B) (Homo sapiens, UniProt P41595); assay: Calcium No Wash Plus calcium mobilization assay, HTR2B antagonist mode; assay type: cell-based
T4 construct: expressed in transfected cells
T4 sequence (P41595 whole entry, species assumed): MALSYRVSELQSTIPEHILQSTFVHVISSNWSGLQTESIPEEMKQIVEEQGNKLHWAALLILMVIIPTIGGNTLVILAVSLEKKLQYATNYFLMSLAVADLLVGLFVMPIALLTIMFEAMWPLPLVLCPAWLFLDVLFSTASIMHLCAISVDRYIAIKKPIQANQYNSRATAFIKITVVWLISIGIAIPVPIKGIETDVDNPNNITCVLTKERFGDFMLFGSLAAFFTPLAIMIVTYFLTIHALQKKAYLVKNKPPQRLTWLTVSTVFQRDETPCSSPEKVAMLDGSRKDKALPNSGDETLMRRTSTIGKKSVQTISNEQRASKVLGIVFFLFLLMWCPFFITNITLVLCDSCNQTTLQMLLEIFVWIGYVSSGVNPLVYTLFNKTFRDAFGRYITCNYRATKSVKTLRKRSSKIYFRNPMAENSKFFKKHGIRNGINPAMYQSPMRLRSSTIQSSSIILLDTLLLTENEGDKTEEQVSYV
Description: Methods—Calcium Mobilization: GPCR activity of serotonin receptor 2B (HTR2B), among others, was measured using the Calcium No Wash^Plus assay, which monitors calcium mobilization in cell lines expressing Gq-coupled GPCRs by loading a calcium-sensitive dye into cells.
Cell lines were expanded from freezer stocks and seeded into multi-well microplates. Then, the plates were incubated at 37° C. for an appropriate amount of time and loaded with Dye Loading buffer. To determine compound agonist activity, cells were incubated with the sample to induce a response, and HBSS/20 mM Hepes was added using a FLIPR Tetra (MDS). Activity was measured on a FLIPR Tetra. Calcium mobilization was monitored for 2 minutes.
To determine compound antagonist activity, cells were pre-incubated with the sample followed by an post-incubation administration of the compound with 3×EC80 agonist using FLIPR. Compound antagonist activity was measured on a FLIPR Tetra (MDS) and calcium mobilization was monitored for 2 minutes.
Compound activity was analyzed using CBIS data analysis suite (ChemInnovation, CA). For agonist mode assays, percentage activity was calculated using the following formula: % Activity=100%×(mean RFU of test sample−mean RFU of vehicle control)/(mean MAX RFU control ligand −mean RFU of vehicle control). […]

[2] = molecular target: T5, nicotinic acetylcholine receptor nAChR (a4/b2) (Homo sapiens, UniProt P17787+P43681); assay: FLIPR Membrane Potential ion channel assay, nAChR (a4/b2) blocker; assay type: cell-based; settings: read-out: EC50/IC50
T5 construct: expressed in transfected cells
T5 sequence (P43681 29-627 limits assumed): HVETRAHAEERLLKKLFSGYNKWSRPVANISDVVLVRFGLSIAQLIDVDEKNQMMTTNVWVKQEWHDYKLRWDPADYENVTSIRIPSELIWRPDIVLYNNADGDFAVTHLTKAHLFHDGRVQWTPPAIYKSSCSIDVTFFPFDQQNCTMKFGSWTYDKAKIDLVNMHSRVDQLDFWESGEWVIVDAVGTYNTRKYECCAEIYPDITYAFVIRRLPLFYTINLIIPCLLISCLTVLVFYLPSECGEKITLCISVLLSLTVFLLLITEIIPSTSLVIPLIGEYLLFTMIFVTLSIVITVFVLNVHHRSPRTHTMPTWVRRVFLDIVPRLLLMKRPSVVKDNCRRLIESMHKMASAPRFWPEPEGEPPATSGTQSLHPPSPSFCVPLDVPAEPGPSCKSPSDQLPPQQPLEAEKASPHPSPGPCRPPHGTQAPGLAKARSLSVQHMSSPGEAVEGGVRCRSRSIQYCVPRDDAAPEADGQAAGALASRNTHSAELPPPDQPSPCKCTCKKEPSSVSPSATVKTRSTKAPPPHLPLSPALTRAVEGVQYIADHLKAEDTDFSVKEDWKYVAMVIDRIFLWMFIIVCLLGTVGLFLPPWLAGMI
T5 sequence (P17787 26-502): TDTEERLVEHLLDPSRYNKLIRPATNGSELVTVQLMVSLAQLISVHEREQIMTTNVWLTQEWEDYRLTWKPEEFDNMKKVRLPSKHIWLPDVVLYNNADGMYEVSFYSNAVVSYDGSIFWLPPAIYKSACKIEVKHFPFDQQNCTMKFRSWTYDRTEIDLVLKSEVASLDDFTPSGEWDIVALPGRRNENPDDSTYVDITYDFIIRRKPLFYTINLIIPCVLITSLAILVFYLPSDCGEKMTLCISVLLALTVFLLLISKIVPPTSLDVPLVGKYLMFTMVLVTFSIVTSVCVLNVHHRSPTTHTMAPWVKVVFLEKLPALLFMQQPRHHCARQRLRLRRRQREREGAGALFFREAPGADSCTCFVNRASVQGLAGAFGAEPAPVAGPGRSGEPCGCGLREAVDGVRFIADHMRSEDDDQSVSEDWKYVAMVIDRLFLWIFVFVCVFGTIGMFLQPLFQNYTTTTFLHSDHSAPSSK
Description: Methods—Ion Channel Assay: Membrane potential changes were measured using the FLIPR® Membrane potential Assay Kit. A fluorescent indicator dye in combination with a quencher is used to reflect real-time membrane potential changes associated with ion channel activation and ion transporter proteins.
To determine agonist and antagonist activity, cell lines were expanded from freezer stocks, seeded into multi-well microplates, and incubated at 37° C. Cells were then loaded with dye and incubated again.
For agonist determination, cells were incubated with the sample a different dilutions to induce a response. For antagonist determination, cells were pre-incubated with the sample at different dilutions. Following dye administration, the sample was added to the cells in the presence of EC80 agonist and then re-incubated at room temperature in the dark.
Compound activity was analyzed using CBIS data analysis suite (ChemInnovation, CA). For agonist mode assays, percentage activity was calculated using the following formula: % Activity=100%×(mean RLU of test sample−mean RLU of vehicle control)/(mean MAX control ligand−mean RLU of vehicle control).
For antagonist mode assays, percentage inhibition was calculated using the following formula: % Inhibition=100%×(1−(mean RLU of test sample−mean RLU of vehicle control)/(mean RLU of EC80 control−mean RLU of vehicle control)).

[3] = cited from earlier work
[4] = cited from earlier work; remark: listed apart in the source

T1 sequence (P23975 whole entry): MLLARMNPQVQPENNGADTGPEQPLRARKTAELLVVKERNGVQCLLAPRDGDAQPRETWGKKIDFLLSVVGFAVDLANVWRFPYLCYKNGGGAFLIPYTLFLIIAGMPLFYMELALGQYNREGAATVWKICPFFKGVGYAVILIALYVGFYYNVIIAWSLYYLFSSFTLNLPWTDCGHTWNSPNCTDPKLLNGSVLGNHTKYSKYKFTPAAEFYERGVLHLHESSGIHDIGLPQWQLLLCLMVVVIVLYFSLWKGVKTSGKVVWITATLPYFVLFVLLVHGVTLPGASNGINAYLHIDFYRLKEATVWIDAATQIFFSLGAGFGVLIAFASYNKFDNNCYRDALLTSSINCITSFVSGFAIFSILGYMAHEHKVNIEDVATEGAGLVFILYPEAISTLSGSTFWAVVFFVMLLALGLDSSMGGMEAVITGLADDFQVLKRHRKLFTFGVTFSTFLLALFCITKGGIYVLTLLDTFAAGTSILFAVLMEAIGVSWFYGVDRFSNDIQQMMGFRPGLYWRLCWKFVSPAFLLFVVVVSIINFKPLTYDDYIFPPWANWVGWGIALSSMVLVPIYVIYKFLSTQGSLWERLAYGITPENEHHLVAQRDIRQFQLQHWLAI
CYP2D6, sequence (P10635 whole entry): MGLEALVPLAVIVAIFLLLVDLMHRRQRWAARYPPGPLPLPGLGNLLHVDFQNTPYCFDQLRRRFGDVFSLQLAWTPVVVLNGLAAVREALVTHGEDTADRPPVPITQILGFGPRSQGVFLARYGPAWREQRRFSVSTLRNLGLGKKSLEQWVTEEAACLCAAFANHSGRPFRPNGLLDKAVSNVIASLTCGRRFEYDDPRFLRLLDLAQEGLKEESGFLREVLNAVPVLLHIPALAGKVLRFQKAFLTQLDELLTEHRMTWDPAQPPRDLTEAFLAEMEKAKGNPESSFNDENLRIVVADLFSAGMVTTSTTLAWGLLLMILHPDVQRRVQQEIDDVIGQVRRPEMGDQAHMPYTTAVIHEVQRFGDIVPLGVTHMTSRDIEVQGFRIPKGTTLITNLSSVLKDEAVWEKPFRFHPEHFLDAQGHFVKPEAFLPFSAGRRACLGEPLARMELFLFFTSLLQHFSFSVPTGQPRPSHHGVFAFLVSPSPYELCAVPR

In the case of `CNC(C)Cc1ccc2c(c1)OCO2` (stereo not drawn) [MDMA, 3,4-methylenedioxymethamphetamine], the CYP2D6 inhibition (CYP2D6) is listed as “inhibit CYP2D6”, the pIC50 (NET) is listed as 5.60 and the pIC50 (DAT) is listed as 5.01. The pEC50 (HTR1B) was 5.33, the pIC50 [1] was 5.27 and the pIC50 [2] was 5.50. The “efficacy in severe PTSD” value ([3]; MDMA-assisted therapy compared to therapy with inactive placebo) was “highly efficacious” and the safety and tolerability ([3]; individuals with severe PTSD, even with comorbidities) was “safe and well-tolerated”.

For `[2H]C([2H])([2H])NC(C)Cc1ccc2c(c1)OCO2` (stereo not drawn) [MDMA-d3], the pIC50 (NET) was 5.41, the pIC50 (DAT) was 5.12 and the pEC50 (HTR1B) was 5.52. The pIC50 [1] was 5.38 and the pIC50 [2] was 5.36.

In the case of `[2H]C1([2H])Oc2ccc(CC(C)NC)cc2O1` (stereo not drawn) [d2-MDMA], the interoceptive effects ([4]; deuterium substitution at the methylenedioxy ring moiety) is given as “does not impact MDMA's interoceptive effects” and the hyperthermic effects ([4]; in vivo) is given as “reduced potential for producing hyperthermic effects”.
